Experimental findings from patent US5234909A, “Dipeptidic amides derived from glycyl-serine as surfactants or hydrating agents and cosmetic, pharmaceutical or alimentary compositions containing the same” (L'Oreal, priority 1991, dated 1993) are described below.

Where a SMILES comes first, the peptide text is derived from it. [ ]: non-standard residue; d: D form. The star is where a group is joined. ξ: configuration not given here. Oleoyl = CCCCCCCC/C=C\CCCCCCCC(=O)*; Lauroyl = CCCCCCCCCCCC(=O)*; ξS = NC(CO)C(=O)O

The subject of series [1] is human stratum corneum previously delipidated. The series can be described thus: Hydrating effect on the skin: reduction of water loss of delipidated stratum corneum (evaporimeter). The note with it: 3% solution in 2:1 dichloromethane:methanol applied on delipidated human stratum corneum; measured 3 hours after treatment. How it is done: In this test, the hydrating effect is evaluated by measuring the reduction of water loss of human stratum corneum previously delipidated. The stratum corneum is delipidated for one hour with a 2:1 dichloromethane/methanol mixture.
This test is effected in accordance with a method analogous to that described by J. L. Leveque et coll., J. Soc. Cosmet. Chem., 30, 333-343 (1979).
The following procedures are carried out:
The water flow (g/m^2.H) traversing a sample of stratum corneum placed below a water reservoir is measured. Using an evaporimeter (Servomed, registered mark), the evaporation values before and after treatment are registered, and the eventual reduction of the insensible loss of water is thus determined.
The treatment consists in applying on the sample of stratum corneum […] of a 3% solution in a 2:1 dichloromethane: methanol mixture of the compound being studied. The measurements are carried out 3 hours after this treatment.
On the basis of this test the compound of Example 2 is compared with N-oleoyl-glycyl-glycine (compound B) and with the olvent (2:1 dichloromethane:methanol) alone.

Series [2] in a line: Foaming power study (foam developed by brush in rotating graduated container). It is filed as physicochemical. The note with it: 5% aqueous solution (weight/volume), 5 ml with 6 mg natural feminine sebum; for Foam Height (cm) at the end of a time of 60 sec: 60 sec of stirring; for Foam Height (cm) at the end of a time of 120 sec: 120 sec of stirring; for Foam Height (cm) at the end of a time of 180 sec: 180 sec of stirring. How it is done: The test consists in developing the foam using a brush made of natural hog bristles (length=18 mm) displaced in a plexiglass graduated cylindrical container (inside diameter=35 mm). This container is driven in a uniform circular motion which is the reverse of that described by the brush. This permits a good distribution of the foam in the graduated container despite the small amounts developed. (brush speed =100 rpm, container speed =10 rpm). The procedure is carried out using 5 ml of each solution studied to which has been added 6 mg of natural feminine sebum. The foam heights are recorded after one, two and three minutes of stirring.

As for `CCCCCCCC/C=C\CCCCCCCC(=O)NCC(=O)NC(CO)C(=O)O` (centres unmarked) [Example 2, N-oleoyl-glycyl-(D,L) Serine] (Oleoyl-Gly-[ξS]-OH), in series [1], the “Reduction of the insensible loss of water” value is reported as 32% ± 3.
In the case of `CCCCCCCCCCCC(=O)NCC(=O)NCC(=O)[O-].[Na+]` [compound A, sodium salt of N-dodecanoyl-glycyl-glycine] (Lauroyl-Gly-Gly-OH), in series [2], the “Foam Height (cm) at the end of a time of 60 sec” value is given as 11.25 cm, the “Foam Height (cm) at the end of a time of 120 sec” value amounted to 13.75 cm and the “Foam Height (cm) at the end of a time of 180 sec” value worked out at 20 cm.
Consider `CCCCCCCC/C=C\CCCCCCCC(=O)NCC(=O)NCC(=O)O` [compound B, N-oleoyl-glycyl-glycine] (Oleoyl-Gly-Gly-OH), for which the “Reduction of the insensible loss of water” value in series [1] was 6% ± 3.
In the case of `CCCCCCCCCCCC(=O)NCC(=O)NC(CO)C(=O)[O-].[Na+]` (centres unmarked) [Ex. 5, Sodium Salt of N-dodecanoyl-glycyl-(D,L) Serine] (Lauroyl-Gly-[ξS]-OH), in series [2], the “Foam Height (cm) at the end of a time of 60 sec” value worked out at 12.5 cm, the “Foam Height (cm) at the end of a time of 120 sec” value is reported as 21.25 cm and the “Foam Height (cm) at the end of a time of 180 sec” value turned out to be 28.75 cm.
